27 compounds from patent US20260085077A1, “HETEROCYCLIC DERIVATIVES AS JANUS KINASE INHIBITORS” (CHIESI FARMACEUTICI S.P.A., priority 2022, published 2026) can be followed below.

Each structure is given as a SMILES string. Some results are limits rather than exact numbers.

This experiment relates to IL-13 induced pSTAT6 in BEAS-2B human cell line. The experiment is described as follows: Inhibition of IL-13 induced pSTAT6 in BEAS. It counts as cell-based. The note with it: IL-13 induced pSTAT6, BEAS-2B cells, ELISA. As for the experimental part: BEAS-2B human cell line was seeded (100.000 cells/well) and incubated for 48 h at 37° C., 5% CO2, 95% humidity. Compounds were added and incubated 30 min followed by IL-13 as trigger. After 30 min incubation, cells were lysed and pSTAT6 determined by Fastscan phospho-stat6 (Tyr641) sandwich ELISA kit (cell signaling). Inhibitors were tested at 11 consecutive […] dilutions starting from 10 μM (10 μM-40 pM) in duplicate. Calculation of IC50 data, curves and QC analysis were made using Excel tools and GraphPadPrism software. QC criteria parameters: Z′≥0.35, Hill Slope range 0.5 to 5, S:B>2.
Take `Cc1nn(-c2cc3c(cc2OC(F)F)NCCO3)c2cc(-c3cnn4cccnc34)ncc12` [Example 1, 6-(difluoromethoxy)-7-(3-methyl-6-(pyrazolo[1,5-a]pyrimidin-3-yl)-1H-pyrazolo[4,3-c]pyridin-1-yl)-3,4-dihydro-2H-benzo[b][1,4]oxazine]: the IC50 is 5.01 to 50.1 nM. To `COc1cc2c(cc1-n1nc(C)c3cnc(-c4cnn5cccnc45)cc31)CN(S(C)(=O)=O)C2` [Example 2, 1-(6-methoxy-2-(methylsulfonyl)isoindolin-5-yl)-3-methyl-6-(pyrazolo[1,5-a]pyrimidin-3-yl)-1H-pyrazolo[4,3-c]pyridine] belongs 5.01 to 50.1 nM. Compound `COc1cc2c(cc1-n1nc(C)c3cnc(-c4cnn5cccnc45)cc31)CCCC(=O)N2` [Example 3, 8-methoxy-7-(3-methyl-6-(pyrazolo[1,5-a]pyrimidin-3-yl)-1H-pyrazolo[4,3-c]pyridin-1-yl)-1,3,4,5-tetrahydro-2H-benzo[b]azepin-2-one] had an IC50 of 5.01 to 50.1 nM. As for `COc1cc2c(cc1-n1nc(C)c3cnc(-c4cnn5cccnc45)cc31)CCC(=O)N2` [Example 4, 7-methoxy-6-(3-methyl-6-(pyrazolo[1,5-a]pyrimidin-3-yl)-1H-pyrazolo[4,3-c]pyridin-1-yl)-3,4-dihydroquinolin-2(1H)-one], the figure is 5.01 to 50.1 nM; as for `COc1cc2c(cc1-n1nc(C)c3cnc(-c4cnn5cccnc45)cc31)C(=O)CCN2` [Example 5, 7-methoxy-6-(3-methyl-6-(pyrazolo[1,5-a]pyrimidin-3-yl)-1H-pyrazolo[4,3-c]pyridin-1-yl)-2,3-dihydroquinolin-4(1H)-one], 5.01 to 50.1 nM. For the compound `COc1cc2c(cc1-n1nc(C)c3cnc(-c4cnn5cccnc45)cc31)SCCN2` [Example 6, 6-methoxy-7-(3-methyl-6-(pyrazolo[1,5-a]pyrimidin-3-yl)-1H-pyrazolo[4,3-c]pyridin-1-yl)-3,4-dihydro-2H-benzo[b][1,4]thiazine], the half-maximal inhibitory concentration (IC50) was less than 5.01 nM. To `COc1cc2c(cc1-n1nc(C)c3cnc(-c4cnn5cccnc45)cc31)SCC(=O)N2` [Example 7, 6-methoxy-7-(3-methyl-6-(pyrazolo[1,5-a]pyrimidin-3-yl)-1H-pyrazolo[4,3-c]pyridin-1-yl)-2H-benzo[b][1,4]thiazin-3(4H)-one] belongs 5.01 to 50.1 nM. In turn, `COc1cc2c(cc1-n1nc(C)c3cnc(-c4cnn5cccnc45)cc31)S(=O)(=O)CCN2` [Example 8, 6-methoxy-7-(3-methyl-6-(pyrazolo[1,5-a]pyrimidin-3-yl)-1H-pyrazolo[4,3-c]pyridin-1-yl)-3,4-dihydro-2H-benzo[b][1,4]thiazine 1,1-dioxide] showed a half-inhibitory concentration (IC50) of 5.01 to 50.1 nM. To `COc1cc2c(cc1-n1nc(C)c3cnc(-c4cnn5cccnc45)cc31)OCCCN2` [Example 9, 7-methoxy-8-(3-methyl-6-(pyrazolo[1,5-a]pyrimidin-3-yl)-1H-pyrazolo[4,3-c]pyridin-1-yl)-2,3,4,5-tetrahydrobenzo[b][1,4]oxazepine] belongs 5.01 to 50.1 nM.

Consider `COc1cc2c(cc1-n1nc(C)c3cnc(-c4cnn5cccnc45)cc31)CC(=O)N2` [Example 10, 6-methoxy-5-(3-methyl-6-(pyrazolo[1,5-a]pyrimidin-3-yl)-1H-pyrazolo[4,3-c]pyridin-1-yl)indolin-2-one], for which the IC50 was 5.01 to 50.1 nM. `COc1cc2c(cc1-n1nc(C)c3cnc(-c4cnn5cccnc45)cc31)OC(F)(F)C(=O)N2` [Example 11, 2,2-difluoro-6-methoxy-7-(3-methyl-6-(pyrazolo[1,5-a]pyrimidin-3-yl)-1H-pyrazolo[4,3-c]pyridin-1-yl)-2H-benzo[b][1,4]oxazin-3(4H)-one] had a half-maximal inhibitory concentration (IC50) of 5.01 to 50.1 nM. `COc1cc2c(cc1-n1nc(C)c3cnc(-c4cnn5cccnc45)cc31)CN(C)C(=O)N2` [Example 12, 7-methoxy-3-methyl-6-(3-methyl-6-(pyrazolo[1,5-a]pyrimidin-3-yl)-1H-pyrazolo[4,3-c]pyridin-1-yl)-3,4-dihydroquinazolin-2(1H)-one] had a 50% inhibitory concentration (IC50) of 50.1 to 501 nM. As to `COc1cc2c(cc1-n1nc(C(=O)NC3CN(CC4CCOCC4)C3)c3cnc(-c4cnn5cccnc45)cc31)OCCN2` [Example 13], the half-maximal inhibitory concentration (IC50) is 5.01 to 50.1 nM. To `COc1cc2c(cc1-n1nc(C(=O)NCCCN3CCC(F)(F)CC3)c3cnc(-c4cnn5cccnc45)cc31)OCCN2` [Example 14, N-(3-(4,4-difluoropiperidin-1-yl)propyl)-1-(6-methoxy-3,4-dihydro-2H-benzo[b][1,4]oxazin-7-yl)-6-(pyrazolo[1,5-a]pyrimidin-3-yl)-1H-pyrazolo[4,3-c]pyridine-3-carboxamide] belongs 5.01 to 50.1 nM.

`COc1cc2c(cc1-n1nc(C(=O)NCCN3CCC4(CCC(=O)O4)CC3)c3cnc(-c4cnn5cccnc45)cc31)OCCN2` [Example 15, 1-(6-methoxy-3,4-dihydro-2H-benzo[b][1,4]oxazin-7-yl)-N-(2-(2-oxo-1-oxa-8-azaspiro[4.5]decan-8-yl)ethyl)-6-(pyrazolo[1,5-a]pyrimidin-3-yl)-1H-pyrazolo[4,3-c]pyridine-3-carboxamide] had an IC50 of less than 5.01 nM.

`COc1cc2c(cc1-n1nc(C(=O)NCCCN(C)C)c3cnc(-c4cnn5cccnc45)cc31)SCCN2` [Example 16, N-(3-(dimethylamino)propyl)-1-(6-methoxy-3,4-dihydro-2H-benzo[b][1,4]thiazin-7-yl)-6-(pyrazolo[1,5-a]pyrimidin-3-yl)-1H-pyrazolo[4,3-c]pyridine-3-carboxamide] had an IC50 of less than 5.01 nM.

`COc1cc2c(cc1-n1nc(C(=O)NC3CN(C)C3)c3cnc(-c4cnn5cccnc45)cc31)SCCN2` [Example 17, 1-(6-methoxy-3,4-dihydro-2H-benzo[b][1,4]thiazin-7-yl)-N-(1-methylazetidin-3-yl)-6-(pyrazolo[1,5-a]pyrimidin-3-yl)-1H-pyrazolo[4,3-c]pyridine-3-carboxamide]: the 50% inhibitory concentration (IC50) was 5.01 to 50.1 nM.

Compound `COc1cc2c(cc1-n1nc(C(=O)NC[C@@H]3CN(C)CCO3)c3cnc(-c4cnn5cccnc45)cc31)SCCN2` [Example 18, (R)-1-(6-methoxy-3,4-dihydro-2H-benzo[b][1,4]thiazin-7-yl)-N-((4-methylmorpholin-2-yl)methyl)-6-(pyrazolo[1,5-a]pyrimidin-3-yl)-1H-pyrazolo[4,3-c]pyridine-3-carboxamide] had a 50% inhibitory concentration (IC50) of 5.01 to 50.1 nM.

Regarding `COc1cc2c(cc1-n1nc(NC(=O)OCCCN3CCOC(=O)C3)c3cnc(-c4cnn5cccnc45)cc31)SCCN2` [Example 19, 3-(2-oxomorpholino)propyl (1-(6-methoxy-3,4-dihydro-2H-benzo[b][1,4]thiazin-7-yl)-6-(pyrazolo[1,5-a]pyrimidin-3-yl)-1H-pyrazolo[4,3-c]pyridin-3-yl)carbamate], the half-maximal inhibitory concentration (IC50) is 5.01 to 50.1 nM. To `COc1cc2c(cc1-n1nc(NC(=O)OCCN(C)C3CCOC3=O)c3cnc(-c4cnn5cccnc45)cc31)SCCN2` (stereo not drawn) [Example 20, 2-(methyl(2-oxotetrahydrofuran-3-yl)amino)ethyl (1-(6-methoxy-3,4-dihydro-2H-benzo[b][1,4]thiazin-7-yl)-6-(pyrazolo[1,5-a]pyrimidin-3-yl)-1H-pyrazolo[4,3-c]pyridin-3-yl)carbamate] belongs 5.01 to 50.1 nM. In the case of `COc1cc2c(cc1-n1nc(C(=O)NC[C@@H]3CN(C)CCO3)c3cnc(-c4cnn5cccnc45)cc31)SCC(=O)N2` [Example 21, (R)-1-(6-methoxy-3-oxo-3,4-dihydro-2H-benzo[b][1,4]thiazin-7-yl)-N-((4-methylmorpholin-2-yl)methyl)-6-(pyrazolo[1,5-a]pyrimidin-3-yl)-1H-pyrazolo[4,3-c]pyridine-3-carboxamide], the concentration for half-maximal inhibition (IC50) was 5.01 to 50.1 nM. As to `COc1cc2c(cc1-n1nc(C(=O)NC[C@H]3CN(C)CCO3)c3cnc(-c4cnn5cccnc45)cc31)SCC(=O)N2` [Example 22, (S)-1-(6-methoxy-3-oxo-3,4-dihydro-2H-benzo[b][1,4]thiazin-7-yl)-N-((4-methylmorpholin-2-yl)methyl)-6-(pyrazolo[1,5-a]pyrimidin-3-yl)-1H-pyrazolo[4,3-c]pyridine-3-carboxamide], the 50% inhibitory concentration (IC50) is 5.01 to 50.1 nM. The compound `COc1cc2c(cc1-n1nc(C(=O)NCCCN(C)C)c3cnc(-c4cnn5cccnc45)cc31)SCC(=O)N2` [Example 23, N-(3-(dimethylamino)propyl)-1-(6-methoxy-3-oxo-3,4-dihydro-2H-benzo[b][1,4]thiazin-7-yl)-6-(pyrazolo[1,5-a]pyrimidin-3-yl)-1H-pyrazolo[4,3-c]pyridine-3-carboxamide] had an IC50 of 5.01 to 50.1 nM.

`COc1cc2c(cc1-n1nc(C(=O)NCCCN(C)C)c3cnc(-c4cnn5cccnc45)cc31)CCC(=O)N2` [Example 24, N-(3-(dimethylamino)propyl)-1-(7-methoxy-2-oxo-1,2,3,4-tetrahydroquinolin-6-yl)-6-(pyrazolo[1,5-a]pyrimidin-3-yl)-1H-pyrazolo[4,3-c]pyridine-3-carboxamide] showed an IC50 of 50.1 to 501 nM.

Take `COc1cc2c(cc1-n1nc(C(=O)NCCCN(C)C)c3cnc(-c4cnn5cccnc45)cc31)CCCN2` [Example 25, N-(3-(dimethylamino)propyl)-1-(7-methoxy-1,2,3,4-tetrahydroquinolin-6-yl)-6-(pyrazolo[1,5-a]pyrimidin-3-yl)-1H-pyrazolo[4,3-c]pyridine-3-carboxamide]: the concentration for half-maximal inhibition (IC50) was 5.01 to 50.1 nM.

`CNc1nn(-c2cc3c(cc2OC)NC(=O)CC3)c2cc(-c3cnn4cccnc34)ncc12` [Example 26, 7-methoxy-6-(3-(methylamino)-6-(pyrazolo[1,5-a]pyrimidin-3-yl)-1H-pyrazolo[4,3-c]pyridin-1-yl)-3,4-dihydroquinolin-2(1H)-one] showed an IC50 of 5.01 to 50.1 nM.

`COc1cc2c(cc1-n1nc(NC(=O)OCCN(C)C)c3cnc(-c4cnn5cccnc45)cc31)CCC(=O)N2` [Example 27, 2-(dimethylamino)ethyl (1-(7-methoxy-2-oxo-1,2,3,4-tetrahydroquinolin-6-yl)-6-(pyrazolo[1,5-a]pyrimidin-3-yl)-1H-pyrazolo[4,3-c]pyridin-3-yl)carbamate] had an IC50 of 5.01 to 50.1 nM.
